Source: patent US20080261286A1, “Methods for producing optically active alpha-hydroxy amides” (Daicel Chemical Industries, Ltd., priority 2004, published 2008)

What was measured:
Format in all cases: biochemical
α-ketoamide reductase [1] = target: T1, α-ketoamide reductase (Saccharomyces cerevisiae, UniProt Q07551); assay: Substrate specificity of α-ketoamide reductase (relative reducing activity); conditions: activity of reducing 2-chlorobenzoyl formamide taken as 100, substrate concentration 1 mM
T1 construct: 500 g of live baker's yeast was purchased from Oriental yeast and the fungal cells were used to purify the enzyme; tissue Oriental Yeast; host or cells: live baker's yeast cells; enzyme purified to a single SDS-PAGE band
T1 sequence (Q07551 1-312): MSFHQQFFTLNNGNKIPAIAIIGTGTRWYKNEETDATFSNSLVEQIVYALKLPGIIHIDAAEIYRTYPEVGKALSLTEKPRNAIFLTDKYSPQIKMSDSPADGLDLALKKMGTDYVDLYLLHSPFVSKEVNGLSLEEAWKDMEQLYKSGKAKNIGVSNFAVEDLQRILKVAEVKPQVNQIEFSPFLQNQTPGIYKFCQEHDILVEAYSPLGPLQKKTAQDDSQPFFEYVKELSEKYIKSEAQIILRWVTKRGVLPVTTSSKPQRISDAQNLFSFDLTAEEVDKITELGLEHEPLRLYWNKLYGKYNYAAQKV
Procedure: (§1) The enzyme is incubated in a reaction solution containing 100 mM potassium phosphate buffer (pH 6.5), 0.2 mM NADPH, and 1 mM 2-chlorobenzoyl formamide at 30° C. Adecrease in NADPH concentration is assessed by the decrease in absorbance at 340 nm. 1 U is defined as the amount of enzyme required to catalyze the decrease of 1 μmol NADPH in one minute.
The enzyme obtained in Example 1 was incubated with any one of various α-ketoamides, α-ketoesters, β-ketoesters, aldehydes, ketones, and others. The reducing activity is represented as a relative activity when the activity of reducing 2-chlorobenzoyl formamide is taken as 100.

α-ketoamide reductase [2] = target: T1, α-ketoamide reductase; assay: Stereoselectivity of α-ketoamide reductase (optical purity of reduction product); conditions: for Optical purity (%): product of reduction, 0.2 U purified enzyme, 10 μmol substrate, 10 μmol NADPH, pH 7.0, 37° C., 6 hours
Procedure: 0.2 U of the purified enzyme and each of various α-ketoamides and α-ketoesters (10 μmol each) were incubated in 0.5 ml of 0.1 M potassium phosphate buffer (pH 7.0) in the presence of 10 μmol NADPH at 37° C. for 6 hours. The resulting α-hydroxy amides and α-hydroxyesters were extracted with ether, and then the optical purity of each compound was determined.
The optical purity was determined by the procedure described below.
The optical purity of 2-chloromandelamide was determined by chiral HPLC method or chiral GC method. The chiral HPLC method comprises chromatography using CHIRALPAK AS-H (DAICEL CHEMICAL INDUSTRIES, LTD.). The elution was carried out using a mixed solution of n-hexane and ethanol (85:15) at a flow rate 1.0 mL/min and a column temperature of 25° C. The elution peak for the compound was detected by UV absorbance at 254 nm. Under these conditions, 2-chloromandelamide was eluted 7.5 minutes (R-isomer) and 10.1 minutes (S-isomer) after the start of elution.
The chiral GC method comprises chromatography using GAMMA DEX 225 (SUPELCO; 30 m×0.25 mm×0.25 μm film thickness) under the following conditions: column temperature, 190° C.; injection temperature, 220° C.; detection temperature 220° C.; carrier gas, He/1.0 kg/cm^2. Under the conditions described above, the S-isomer was eluted 27.0 minutes, and the R-isomer was eluted 29.3 minutes after the start of the elution.
The optical purities of the other α-hydroxyesters were determined by the chiral GC method described below using Chirasil-DEX CB column (Varian; […]×0.25 μm film thickness). GAMMA DEX 225 was used to determine the optical purities of ethyl lactate (injection temperature, 180° C.; column temperature, […]; detection temperature, 180° C.; R-isomer, 6.13 minutes; S-isomer, 6.82 minutes), ethyl 2-hydroxybutyrate (injection temperature, 180° C.; column temperature, 100° C.; detection temperature, 180° C.; R-isomer, 5.88 minutes; S-isomer, 6.32 minutes), ethyl 2-hydroxyvalerate (injection temperature, 180° C.; column temperature, 110° C.; detection temperature, 180° C.; R-isomer, 6.17 minutes; S-isomer, 6.88 minutes), ethyl 2-hydroxy heptanoate (injection temperature, 180° C.; column temperature, 120° C.; detection temperature, 180° C.; R-isomer, 11.20 minutes; S-isomer, 12.00 minutes), and 2-hydroxyisovalerate (injection temperature, 180° C.; column temperature, 90° C.; detection temperature, 180° C.; R-isomer, 10.42 minutes; S-isomer, 10.89 minutes).

[3] = 2-chlorobenzoyl formamide-reducing activity of enzyme preparations; conditions: purified enzyme, 1 mM 2-chlorobenzoyl formamide, 0.2 mM NADPH, pH 6.5, 30° C.
Procedure: as §1
Cells of E. coli DH10B strain containing pSE-YDL1 or pSG-YDL1 were grown on LB medium containing ampicillin. Cells were induced with 0.1 mM IPTG for 4 hours, and then the cells were harvested by centrifugation.
Each sample of cells was suspended in cell lysis buffer (50 mM potassium phosphate buffer (pH 8.0) containing 0.02% 2-mercaptoethanol). The cells were crushed by sonication. Then, the lysates were centrifuged and the resulting supernatants were saved as cell-free extracts.

[4] = pH and temperature dependency and stability of α-ketoamide reductase
Procedure: The pH of the reaction solution was altered using 0.1 M sodium acetate buffer (pH 4.0-5.5), potassiumphosphate buffer (pH 5.5-7.5), Tris-hydrochloride buffer (pH 7.5-9.0), and glycine-potassium hydroxide buffer (pH 9.0-10.5) to assess the pH dependency of the 2-chlorobenzoyl formamide-reducing activity of the enzyme obtained in Example 1. The activity at each pH was determined as a relative activity when the maximal activity was taken as 100. The optimal pH (pH range in which the relative activity is 80% or higher) was 5.5-6.5.
The enzyme obtained in Example 1 was assessed for 2-chlorobenzoyl formamide-reducing activity under standard reaction conditions at various temperatures. The activity at each temperature was determined as a relative activity when the maximal activity was taken as 100. The optimal temperature (temperature range in which the relative activity is 80% or higher) was 35 to 47° C.
The purified enzyme was incubated in 0.1 M sodium acetate buffer (pH 4.0-5.5), 0.1 M potassium phosphate buffer (pH 6.0-7.5), 0.1 M Tris-hydrochloride buffer (pH 8.0-9.0), or 0.1 M glycine-potassium hydroxide buffer (pH 9.5-10.5) at 37° C. for 10 minutes. Then, the enzymatic activity was determined as a relative activity when the activity before the treatment was taken as 100. The stable pH range (pH range in which the residual activity is 80% or higher) was pH 5.5 to 9.5.
The purified enzyme was incubated in 100 mM potassium phosphate buffer (pH 7.0) at 20 to 50° C. for 30 minutes. The temperature range in which the enzyme activity is stable (temperature range in which the residual activity is 80% or higher) falls within the range comprising 40° C. and lower temperatures.

Question: For `O=C1CCCCC1=O`, which “Reducing activity (%)” value (α-ketoamide reductase [1]) is on record?
Answer: 10%

Question: With `CCOC(=O)C(=O)c1ccccc1` [drawing 31] as the molecule, how does the “Optical purity (%)” value (α-ketoamide reductase [2]) read?
Answer: 97%

Question: Which “Reducing activity (%)” value (α-ketoamide reductase [1]) does the source give for `CCOC(=O)CC(=O)c1ccccc1` here?
Answer: 0%

Question: Which “Reducing activity (%)” value (α-ketoamide reductase [1]) does the source give for `CCOC(=O)C(=O)C(C)C` [drawing 11] here?
Answer: 71%

Question: For `CCOC(=O)C(C)C(C)=O` (centres unmarked), which “Reducing activity (%)” value (α-ketoamide reductase [1]) is on record?
Answer: 0%

Question: What does the source list for `NC(=O)C(=O)c1ccccc1Cl` [2-chlorobenzoyl formamide]?
Answer: Reducing activity (%) (α-ketoamide reductase [1]): 100%; purity of (R)-2-chloromandelamide produced (α-ketoamide reductase [2]; purified enzyme (summary)): ≥ 99%

Question: With `CCCCCC(=O)C(=O)OCC` [drawing 29] as the molecule, how does the “Optical purity (%)” value (α-ketoamide reductase [2]) read?
Answer: >99%

Question: Which “Reducing activity (%)” value (α-ketoamide reductase [1]) does the source give for `CCCCC(=O)C(=O)OCC` here?
Answer: 49%

Question: Which “Reducing activity (%)” value (α-ketoamide reductase [1]) does the source give for `CCOC(=O)C(Cl)C(C)=O` (centres unmarked) here?
Answer: 0%

Question: With `CC(=O)COC(C)=O` as the molecule, how does the “Reducing activity (%)” value (α-ketoamide reductase [1]) read?
Answer: 0%

Question: With `CCOC(=O)C(C)=O` [drawing 6] as the molecule, how does the “Reducing activity (%)” value (α-ketoamide reductase [1]) read?
Answer: 9%

Question: With `CCOC(=O)C(=O)c1ccccc1` [drawing 5] as the molecule, how does the “Reducing activity (%)” value (α-ketoamide reductase [1]) read?
Answer: 32%

Question: For `CCOC(=O)C(=O)CC` [drawing 7], which “Reducing activity (%)” value (α-ketoamide reductase [1]) is on record?
Answer: 33%

Question: With `NC(=O)C(=O)c1ccccc1Cl` [drawing 25] as the molecule, how does the “Optical purity (%)” value (α-ketoamide reductase [2]) read?
Answer: >99%

Question: With `C=CCC(C(C)=O)C(=O)OCC` (centres unmarked) as the molecule, how does the “Reducing activity (%)” value (α-ketoamide reductase [1]) read?
Answer: 0%

Question: Which “Optical purity (%)” value (α-ketoamide reductase [2]) does the source give for `CCOC(=O)C(C)=O` [drawing 26] here?
Answer: >99%

Question: For `CCCCCC(=O)C(=O)OCC` [drawing 10], which “Reducing activity (%)” value (α-ketoamide reductase [1]) is on record?
Answer: 50%

Question: With `NC(=O)C(=O)c1ccccc1` as the molecule, how does the “Reducing activity (%)” value (α-ketoamide reductase [1]) read?
Answer: 59%

Question: Which “Reducing activity (%)” value (α-ketoamide reductase [1]) does the source give for `CCCC(=O)C(=O)OCC` [drawing 8] here?
Answer: 46%

Question: Which “Reducing activity (%)” value (α-ketoamide reductase [1]) does the source give for `CCOC(=O)CC(=O)CCl` here?
Answer: 4%

Question: Which “Reducing activity (%)” value (α-ketoamide reductase [1]) does the source give for `NC(=O)C(=O)c1cccc(Cl)c1` here?
Answer: 143%

Question: Which “Reducing activity (%)” value (α-ketoamide reductase [1]) does the source give for `NC(=O)C(=O)c1ccc(Cl)cc1` here?
Answer: 71%

Question: For `CC(=O)c1ccccc1`, which “Reducing activity (%)” value (α-ketoamide reductase [1]) is on record?
Answer: 0%

Question: Which “Optical purity (%)” value (α-ketoamide reductase [2]) does the source give for `CCOC(=O)C(=O)CC` [drawing 27] here?
Answer: >99%

Question: For `CC1(C)COC(=O)C1=O`, which “Reducing activity (%)” value (α-ketoamide reductase [1]) is on record?
Answer: 19%

Question: Which “Optical purity (%)” value (α-ketoamide reductase [2]) does the source give for `CCCC(=O)C(=O)OCC` [drawing 28] here?
Answer: 98%

Question: For `CCOC(=O)C(=O)C(C)C` [drawing 30], which “Optical purity (%)” value (α-ketoamide reductase [2]) is on record?
Answer: >99%

Question: Which “Reducing activity (%)” value (α-ketoamide reductase [1]) does the source give for `CC(C)C(=O)C(=O)O` here?
Answer: 0%

Question: Which “Reducing activity (%)” value (α-ketoamide reductase [1]) does the source give for `COCC(C)=O` here?
Answer: 0%

Question: Which “Reducing activity (%)” value (α-ketoamide reductase [1]) does the source give for `O=CC(=O)c1ccccc1` here?
Answer: 120%

Question: For `O=C(CCl)c1ccccc1`, which “Reducing activity (%)” value (α-ketoamide reductase [1]) is on record?
Answer: 0%

B1: α-ketoamide reductase: NADPH-dependent α-ketoamide reductase purified from baker's yeast, encoded by YDL124w (SEQ ID NO: 2) (protein, listed as Saccharomyces cerevisiae)
chain: MSFHQQFFTLNNGNKIPAIAIIGTGTRWYKNEETDATFSNSLVEQIVYALKLPGIIHIDAAEIYRTYPEVGKALSLTEKPRNAIFLTDKYSPQIKMSDSPADGLDLALKKMGTDYVDLYLLHSPFVSKEVNGLSLEEAWKDMEQLYKSGKAKNIGVSNFAVEDLQRILKVAEVKPQVNQIEFSPFLQNQTPGIYKFCQEHDILVEAYSPLGPLQKKTAQDDSQPFFEYVKELSEKYIKSEAQIILRWVTKRGVLPVTTSSKPQRISDAQNLFSFDLTAEEVDKITELGLEHEPLRLYWNKLYGKYNYAAQKV
Question: Which results are given for B1?
Answer: specific activity [3]: about 105 U/mg; specific activity ([3]; listed as purified enzyme): 105 U/mg; temperature range in which the residual activity is 80% or higher ([4]; 100 mM potassium phosphate buffer (pH 7.0), 30 minutes): ≤ 40 °C; optimal pH (pH range in which the relative activity is 80% or higher) ([4]; 2-chlorobenzoyl formamide-reducing activity): 5.5-6.5; stable pH range (pH range in which the residual activity is 80% or higher) ([4]; 37° C. for 10 minutes): 5.5 to 9.5; optimal temperature (temperature range in which the relative activity is 80% or higher) ([4]; standard reaction conditions): 35 to 47 °C
